Entries after “also recorded” stand apart in the source; their conditions may differ. Each block holds one compound with its values, some of them ahead of it.
Experiments:
lymphatic monolayer = conditions: literature reference 17; cited from earlier work
[1] = test system: LEC (lymphatic endothelium); assay: effect of 15-HETE on the cultured LEC; type: cell-based
Text: To decipher the role of 15-Lox lipid derived mediators, we studied the effect of 15-HETE on the cultured LEC. We identified a direct effect of 15 HETE on the lymphatic endothelium. It promoted Tcells adhesion to the lymphatic monolayer (data not shown), had no effect on LEC proliferation (data not shown), but stimulated their migration (data not shown).

15-LOX = molecular target: T1, 15-LOX (Mus musculus, UniProt P39654); assay: 15-LOX inhibitor in mouse model of lymphedema; type: in vivo; conditions: in presence of 15-LOX inhibitor
T1 construct: from tissue; host or cells: living C57BL/6J mice (lymphedematous limb)
T1 sequence (P39654 1-663): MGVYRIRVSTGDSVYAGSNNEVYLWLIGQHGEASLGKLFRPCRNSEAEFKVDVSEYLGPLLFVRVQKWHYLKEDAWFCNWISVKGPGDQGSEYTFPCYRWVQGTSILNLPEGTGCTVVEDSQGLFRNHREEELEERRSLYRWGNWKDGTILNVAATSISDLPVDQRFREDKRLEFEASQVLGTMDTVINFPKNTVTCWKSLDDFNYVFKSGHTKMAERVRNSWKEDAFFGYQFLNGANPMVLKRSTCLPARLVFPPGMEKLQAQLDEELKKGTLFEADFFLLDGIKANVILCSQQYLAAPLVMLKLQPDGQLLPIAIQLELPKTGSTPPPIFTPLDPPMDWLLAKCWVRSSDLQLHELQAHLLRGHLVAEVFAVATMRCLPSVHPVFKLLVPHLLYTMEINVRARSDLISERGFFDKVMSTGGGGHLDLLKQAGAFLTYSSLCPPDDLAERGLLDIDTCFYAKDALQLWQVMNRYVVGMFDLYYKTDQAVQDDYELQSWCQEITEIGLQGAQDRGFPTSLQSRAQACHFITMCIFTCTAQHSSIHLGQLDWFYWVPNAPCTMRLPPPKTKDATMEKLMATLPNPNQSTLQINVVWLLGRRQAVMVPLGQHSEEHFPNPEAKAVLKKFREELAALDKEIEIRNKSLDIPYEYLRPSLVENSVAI
Description: Mice were housed in individually ventilated cages in a temperature and light regulated room in a SPF facility and received food and water ad libitum. Female C57BL/6J (6 weeks old) were obtained from Janvier (Le Genest Saint Isle, France). Mouse model of lymphedema was performed as previously described (Morfoisse ATVB 2008).
To understand the molecular mechanisms underlying the inflammatory process in lymphedema, we performed a time course analysis of the adipose tissue in a mouse model of lymphedema (not shown). […] In early stages of LD (2 weeks post surgery), no significant difference in lipid content was observed (data not shown). In contrast, in acquired lymphedema (8 weeks post-surgery), we found similar pattern as those observed in human tissue samples (data not shown). In particular, we observed a decrease in AA-derived lipid mediators generated by 15-LOX (15-HETE) whereas no difference was found in lipids generated by DHA metabolism (17-HDOHE) (data not shown). After eight weeks of LD, we observed that changes in pro-resolvin content was associated with a decrease in 15-LOX mRNA and protein expression (data not shown). Importantly, the downregulation of 15-LOX was also observed in the lymphatic endothelium (data not shown).
To evaluate the role of 15-LOX in LD, we used the PD146176 pharmacological inhibitor. […] As we previously shown that Tcell populations were recruited during LD development, we next performed flow cytometry analysis. We observed in the presence of 15-LOX inhibitor an increase in CD4+ Tcells during LD associated with a decrease in Treg recruitment (data not shown). This was confirmed by a decrease of Tregs (Foxp3 positive cells) immunodetection in lymphedematous tissues (data not shown).

SMILES: CCCCC/C=C\C[C@H](O)/C=C/C=C\C/C=C\CCCC(=O)O [12-HETE]
effect on the lymphatic monolayer (lymphatic monolayer): generates holes in the lymphatic monolayer

SMILES: CCCCC[C@H](O)/C=C/C=C\C/C=C\C/C=C\CCCC(=O)O [15-HETE, 15-hydroxyeicosatetraenoic acid]
deleterious effect / damages on the lymphatic endothelium ([1]; compared to 12-HETE): no deleterious effect; also recorded: did not cause lymphatic damages
LEC proliferation ([1]; cultured LEC): no effect

Treg recruitment (15-LOX; flow cytometry): decrease
Tregs (Foxp3 positive cells) immunodetection in lymphedematous tissues (15-LOX): decrease
LD swelling (15-LOX; mouse model of lymphedema): increased
dermal backflow (15-LOX; mouse model of lymphedema): strong dermal backflow
dermal fibrosis (15-LOX; mouse model of lymphedema): associated with dermal fibrosis
SMILES: c1ccc2c(c1)SCc1c-2[nH]c2ccccc12 [PD146176]
CD4+ Tcells during LD (15-LOX; flow cytometry): increase

— US20250064899A1, “USE OF THE 15-LIPOXYGENASE FOR THE TREATMENT OF LYMPHEDEMA” (INSERM (INSTITUT NATIONAL DE LA SANTÉ ET DE LA RECHERCHE …, priority 2022, published 2025)
